Data: ChEMBL document CHEMBL2311327, “Anti-liver fibrotic lignans from the fruits of Schisandra arisanensis and Schisandra sphenanthera” (Bioorg Med Chem Lett, 2013)

Tested on: HSC-T6
Assay: Inhibition of NF-kappaB (unknown origin) expressed in TNFalpha-stimulated rat HSC-T6 cells assessed as reduction of HSC activation at 10 ug/ml treated 30 mins before TNFalpha stimulation measured after 6 hrs by bioluminescence based luciferase reporter gene assay relative to control
Type: cell-based
Conditions: Homo sapiens
SILYMARIN gave an inhibition of 51.4%.

Tested on: not listed separately
Assay: Cytotoxicity against rat HSC-T6 cells
Type: cell-based
Conditions: not given
For `COc1cc(C[C@@H](C)[C@@H](C)Cc2cc(O)c(OC)c(OC)c2)cc(O)c1OC` [PREGOMISIN], the Activity was “Toxic”.
For `COc1cc2c(c(OC)c1OC)-c1c(cc3c(c1OC)OCO3)C[C@H](C)[C@](C)(O)[C@H]2OC(=O)c1ccccc1` [GOMISIN C], the Activity was “Toxic”.

Tested on: HSC-T6
Assay: Inhibition of NF-kappaB (unknown origin) expressed in TNFalpha-stimulated rat HSC-T6 cells assessed as reduction of HSC activation at 50 ug/ml treated 30 mins before TNFalpha stimulation measured after 6 hrs by bioluminescence based luciferase reporter gene assay relative to control
Type: cell-based
Conditions: not given
With `COc1cc2c(c(O)c1OC)-c1c(cc(OC)c(OC)c1OC)C[C@@H](C)[C@@H](C)C2` the inhibition was 69%.
In the case of `C/C=C(/C)C(=O)O[C@H]1c2cc(OC)c(OC)c(OC)c2-c2c(cc3c(c2OC)OCO3)C[C@H](C)[C@@]1(C)O`, the inhibition is reported as 6.64%.
`C/C=C(\C)C(=O)O[C@H]1c2cc(OC)c(OC)c(OC)c2-c2c(cc(O)c(OC)c2OC)C[C@H](C)[C@]1(C)O` showed an inhibition of 43.2%.
Work on `COc1cc2c(c(OC)c1OC)-c1c(cc(O)c(OC)c1OC)C[C@H](C)[C@](C)(O)[C@@H]2OC(=O)c1ccccc1` yielded an inhibition of 27.9%.
Work on `COc1cc([C@@H]2c3cc(OC)c(O)cc3C(=O)[C@@H](C)[C@H]2C)ccc1O` yielded an inhibition of 46.4%.
`C/C=C(/C)C(=O)O[C@H]1c2cc3c(c(OC)c2-c2c(cc4c(c2OC)OCO4)C[C@H](C)[C@]1(C)O)OCO3` gave an inhibition of 34.8%.
`COc1cc2c(c(OC)c1OC)-c1c3cc4c(c1O[C@](C)([C@H](C)CO)C(=O)O[C@@H]2[C@@H](C)[C@@H](C)C3)OCO4` showed an inhibition of 4.87%.
Work on `COc1cc2c(c(OC)c1OC)-c1c(cc(O)c(OC)c1OC)C[C@H](C)[C@H](C)[C@@H]2O` yielded an inhibition of 49.2%.
`COc1c2c(cc3c1-c1c(cc4c(c1OC)OCO4)[C@H](OC(=O)c1ccccc1)[C@@](C)(O)[C@@H](C)C3)OCO2` showed an inhibition of 71.8%.
